{
  "source": "patent US20230167073A1",
  "about": "(Teijin Pharma Limited, priority 2020, published 2023)",
  "data": [
    {"molecular_target": "T1, Human TRPC6 (Homo sapiens, UniProt Q9Y210)", "T1 construct": "expressed in transfected cells", "T1 sequence (Q9Y210 1-931)": "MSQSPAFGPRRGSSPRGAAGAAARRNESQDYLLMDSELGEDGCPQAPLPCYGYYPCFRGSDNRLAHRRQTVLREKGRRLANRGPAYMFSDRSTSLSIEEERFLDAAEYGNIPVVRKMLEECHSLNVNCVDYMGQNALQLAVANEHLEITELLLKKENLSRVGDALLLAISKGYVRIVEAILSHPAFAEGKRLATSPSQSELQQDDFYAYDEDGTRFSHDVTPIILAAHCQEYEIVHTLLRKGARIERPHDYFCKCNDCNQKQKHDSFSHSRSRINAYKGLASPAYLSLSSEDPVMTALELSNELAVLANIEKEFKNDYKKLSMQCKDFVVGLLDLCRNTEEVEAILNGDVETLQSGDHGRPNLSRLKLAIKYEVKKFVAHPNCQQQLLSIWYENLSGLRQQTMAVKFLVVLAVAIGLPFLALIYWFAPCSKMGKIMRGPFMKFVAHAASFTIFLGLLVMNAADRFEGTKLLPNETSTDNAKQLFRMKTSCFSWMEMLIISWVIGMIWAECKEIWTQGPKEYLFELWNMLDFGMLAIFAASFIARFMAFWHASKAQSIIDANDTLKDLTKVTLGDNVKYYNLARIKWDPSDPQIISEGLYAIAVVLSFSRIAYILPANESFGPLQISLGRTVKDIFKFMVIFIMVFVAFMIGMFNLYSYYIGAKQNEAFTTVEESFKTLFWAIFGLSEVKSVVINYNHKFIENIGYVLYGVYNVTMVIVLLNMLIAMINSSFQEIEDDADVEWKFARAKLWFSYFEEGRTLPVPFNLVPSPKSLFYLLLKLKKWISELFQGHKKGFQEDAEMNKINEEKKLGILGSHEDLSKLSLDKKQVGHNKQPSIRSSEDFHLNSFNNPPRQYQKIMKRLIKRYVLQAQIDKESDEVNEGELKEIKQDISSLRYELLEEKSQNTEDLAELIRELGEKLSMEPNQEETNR", "assay": "Evaluation of TRPC6 channel inhibitory activity (1), FLIPR Calcium 5 Assay Kit, OAG stimulation (Compound Nos. 1-1293)", "type": "cell-based", "conditions": "Human TRPC6 stably-expressing cells, OAG 30 μM, FLIPR Calcium 5 Assay Kit; read-out: Inhibitory activity (pIC50 class) (converted)", "experimental": "Evaluation of TRPC6 Channel Inhibitory Activity (1) (Compound Nos. 1-1293)\nIn order to investigate TRPC6 channel inhibitory activity of the compounds, evaluation was conducted using FLIPR® Calcium 5 Assay Kit (Molecular Devices) in accordance with the following procedure. Human TRPC6 stably-expressing cells were seeded in a 384-well black clear bottom plate at a density of 5×10^3/well and cultured in an incubator at 37° C. 5% CO2 for 24 hours. Thereafter, 25 μL of a Non Wash Dye Solution, prepared using Component A, 20 mM HEPES-HBSS and 250 mM probenecid, all of which are included in the kit, was added to each well, and the plate was incubated for 30 minutes. A volume of 12.5 μL of a compound solution was added into each well while the fluorescence was measured with FLIPR tetra. After 20 minutes, 12.5 μL of a 1-oleoyl-2-acetyl glycerol (OAG) solution was added at a final concentration of 30 μM. The difference between the minimum fluorescence intensity before the addition of the compound and the maximum fluorescence intensity after the addition of OAG was defined as a signal. An inhibition rate was calculated, assuming the average signal of wells without the compound as the inhibition rate of 0% and the average signal of wells without the compound and OAG as the inhibition rate of 100%. The calculated inhibition rate was analyzed by a four-parameter logistic regression to quantify the inhibition rate in the logarithm of the inverse of the effective concentration which gives a 50% inhibition rate (pIC50). The intensity was expressed by the following symbols (+, ++, +++).", "units": {"IC50": "nM"}, "values": [
      {"molecule": "Cc1nc(Oc2cc(C#N)ccc2-c2ccc(C3CN(CCC(=O)O)C3)cc2)cc(N2CCOCC2)n1", "note": "[Compound 55, 3-[3-[4-[4-cyano-2-(2-methyl-6-morpholin-4-ylpyrimidin-4-yl)oxyphenyl]phenyl]azetidin-1-yl]propanoic acid]", "IC50": "> 1000"},
      {"molecule": "Cc1nc(Oc2cc(C#N)ccc2-c2ccc(CCNCCC(=O)O)cc2)cc(N2CCOCC2)n1", "note": "[Compound 56, 3-[2-[4-[4-cyano-2-(2-methyl-6-morpholin-4-ylpyrimidin-4-yl)oxyphenyl]phenyl]ethylamino] propanoic acid]", "IC50": "> 1000"},
      {"molecule": "COCCCNCCc1ccc(-c2ccc(C#N)cc2Oc2cc(N3CCOCC3)nc(C)n2)cc1", "note": "[Compound 57, 4-[4-[2-(3-methoxypropylamino)ethyl]phenyl]-3-(2-methyl-6-morpholin-4-ylpyrimidin-4-yl)oxybenzonitrile]", "IC50": "> 1000"},
      {"molecule": "Cc1nc(Oc2cc(C#N)ccc2-c2ccc(CCNCCCO)cc2)cc(N2CCOCC2)n1", "note": "[Compound 58, 4-[4-[2-(3-Hydroxypropylamino)ethyl]phenyl]-3-(2-methyl-6-morpholin-4-ylpyrimidin-4-yl)oxybenzonitrile]", "IC50": "10 to 1000"},
      {"molecule": "Cc1nc(Oc2cc(C#N)ccc2-c2ccc(C(CN)c3ccccc3)cc2)cc(N2CCOCC2)n1", "note": "(centres unmarked) [Compound 59, 4-[4-(2-Amino-1-phenylethyl)phenyl]-3-(2-methyl-6-morpholin-4-ylpyrimidin-4-yl)oxybenzonitrile]", "IC50": "10 to 1000"},
      {"molecule": "Cc1nc(Oc2cc(C#N)ccc2-c2ccc(C(CN)c3ccc(F)cc3)cc2)cc(N2CCOCC2)n1", "note": "(centres unmarked) [Compound 60, 4-[4-[2-amino-1-(4-fluorophenyl)ethyl]phenyl]-3-(2-methyl-6-morpholin-4-ylpyrimidin-4-yl)oxybenzonitrile]", "IC50": "10 to 1000"},
      {"molecule": "Cc1nc(Oc2cc(C#N)ccc2-c2ccc(C(CN)c3cccc(F)c3)cc2)cc(N2CCOCC2)n1", "note": "(centres unmarked) [Compound 61, 4-[4-[2-amino-1-(3-fluorophenyl)ethyl]phenyl]-3-(2-methyl-6-morpholin-4-ylpyrimidin-4-yl)oxybenzonitrile]", "IC50": "> 1000"},
      {"molecule": "Cc1nc(Oc2cc(C#N)ccc2-c2ccc(C(C)CN)cc2)cc(N2CCOCC2)n1", "note": "(centres unmarked) [Compound 62, 4-[4-(1-aminopropan-2-yl)phenyl]-3-(2-methyl-6-morpholin-4-ylpyrimidin-4-yl)oxybenzonitrile]", "IC50": "< 10"},
      {"molecule": "Cc1nc(Oc2cc(C#N)ccc2-c2ccc(C(CN)OCC(=O)O)cc2)cc(N2CCOCC2)n1", "note": "(centres unmarked) [Compound 63, 2-[2-amino-1-[4-[4-cyano-2-(2-methyl-6-morpholin-4-ylpyrimidin-4-yl)oxyphenyl]phenyl]ethoxy] acetic acid]", "IC50": "> 1000"},
      {"molecule": "COCCOC(CN)c1ccc(-c2ccc(C#N)cc2Oc2cc(N3CCOCC3)nc(C)n2)cc1", "note": "(centres unmarked) [Compound 64, 4-[4-[2-amino-1-(2-methoxyethoxy)ethyl]phenyl]-3-(2-methyl-6-morpholin-4-ylpyrimidin-4-yl)oxybenzonitrile]", "IC50": "> 1000"},
      {"molecule": "N#Cc1ccc(-c2ccc(CCN)cc2)c(Oc2cnnc(N3CCCC3)c2)c1", "note": "[Compound 65, 4-[4-(2-aminoethyl)phenyl]-3-(6-pyrrolidin-1-ylpyridazin-4-yl)oxybenzonitrile]", "IC50": "< 10"},
      {"molecule": "N#Cc1ccc(-c2ccc(CCN)cc2)c(Oc2cnnc(N3CCCCC3)c2)c1", "note": "[Compound 66, 4-[4-(2-aminoethyl)phenyl]-3-(6-piperidin-1-ylpyridazin-4-yl)oxybenzonitrile]", "IC50": "< 10"},
      {"molecule": "Cc1nc(Oc2cc(C#N)ccc2-c2ccc(C3(CN)CC3)cc2)cc(N2CCOCC2)n1", "note": "[Compound 67, 4-[4-[1-(aminomethyl)cyclopropyl]phenyl]-3-(2-methyl-6-morpholin-4-ylpyrimidin-4-yl)oxybenzonitrile]", "IC50": "10 to 1000"},
      {"molecule": "Cc1nc(Oc2cc(C#N)ccc2-c2ccc(C(C)(O)CN)cc2)cc(N2CCOCC2)n1", "note": "(centres unmarked) [Compound 68, 4-[4-(1-amino-2-hydroxypropan-2-yl)phenyl]-3-(2-methyl-6-morpholin-4-ylpyrimidin-4-yl)oxybenzonitrile]", "IC50": "10 to 1000"},
      {"molecule": "N#Cc1ccc(-c2ccc(CCN)cc2)c(Oc2cnnc(-c3ccccc3)c2)c1", "note": "[Compound 69, 4-[4-(2-aminoethyl)phenyl]-3-(6-phenylpyridazin-4-yl)oxybenzonitrile]", "IC50": "< 10"},
      {"molecule": "N#Cc1ccc(-c2ccc(CCN)cc2)c(Oc2cnnc(-c3ccccc3O)c2)c1", "note": "[Compound 70, 4-[4-(2-aminoethyl)phenyl]-3-[6-(2-hydroxyphenyl)pyridazin-4-yl]oxybenzonitrile]", "IC50": "< 10"},
      {"molecule": "Cc1nc(Oc2cc(C#N)ccc2-c2nc(C)c(C(O)CN)s2)cc(-c2ccccc2)n1", "note": "(centres unmarked) [Compound 71, 4-[5-(2-amino-1-hydroxyethyl)-4-methyl-1,3-thiazol-2-yl]-3-(2-methyl-6-phenylpyrimidin-4-yl)oxybenzonitrile]", "IC50": "10 to 1000"},
      {"molecule": "Cc1nc(Oc2cc(C#N)ccc2-c2ccc(C(CN)c3ccsc3)cc2)cc(N2CCOCC2)n1", "note": "(centres unmarked) [Compound 72, 4-[4-(2-amino-1-thiophen-3-ylethyl)phenyl]-3-(2-methyl-6-morpholin-4-ylpyrimidin-4-yl)oxybenzonitrile]", "IC50": "10 to 1000"},
      {"molecule": "Cc1nc(Oc2cc(C#N)ccc2-c2ccc(C(CN)c3ccoc3)cc2)cc(N2CCOCC2)n1", "note": "(centres unmarked) [Compound 73, 4-[4-[2-amino-1-(furan-3-yl)ethyl]phenyl]-3-(2-methyl-6-morpholin-4-ylpyrimidin-4-yl)oxybenzonitrile]", "IC50": "10 to 1000"},
      {"molecule": "Cc1nc(Oc2cc(C#N)ccc2-c2ccc(CCN)nc2)cc(N2CCOCC2)n1", "note": "[Compound 74, 4-[6-(2-aminoethyl)pyridin-3-yl]-3-(2-methyl-6-morpholin-4-ylpyrimidin-4-yl)oxybenzonitrile]", "IC50": "10 to 1000"},
      {"molecule": "Cc1nc(Oc2cc(C#N)ccc2-c2ccc(CCN)nc2)cc(-c2ccccc2)n1", "note": "[Compound 75, 4-[6-(2-aminoethyl)pyridin-3-yl]-3-(2-methyl-6-phenylpyrimidin-4-yl)oxybenzonitrile]", "IC50": "10 to 1000"},
      {"molecule": "N#Cc1ccc(-c2ccc(CCN)nc2)c(Oc2cnnc(Cl)c2)c1", "note": "[Compound 76, 4-[6-(2-aminoethyl)pyridin-3-yl]-3-(6-chloropyridazin-4-yl)oxybenzonitrile]", "IC50": "> 1000"},
      {"molecule": "N#Cc1ccc(-c2ccc(CCN)nc2)c(Oc2cnnc(N3CCOCC3)c2)c1", "note": "[Compound 77, 4-[6-(2-aminoethyl)pyridin-3-yl]-3-(6-morpholin-4-ylpyridazin-4-yl)oxybenzonitrile]", "IC50": "> 1000"},
      {"molecule": "N#Cc1ccc(-c2ccc(CCN)nc2)c(Oc2cnnc(N3CCCCC3)c2)c1", "note": "[Compound 78, 4-[6-(2-aminoethyl)pyridin-3-yl]-3-(6-piperidin-1-ylpyridazin-4-yl)oxybenzonitrile]", "IC50": "10 to 1000"},
      {"molecule": "N#Cc1ccc(-c2ccc(CCN)nc2)c(Oc2cc(Cl)cnn2)c1", "note": "[Compound 79, 4-[6-(2-aminoethyl)pyridin-3-yl]-3-(5-chloropyridazin-3-yl)oxybenzonitrile]", "IC50": "> 1000"},
      {"molecule": "N#Cc1ccc(-c2ccc(CCN)nc2)c(Oc2cc(N3CCOCC3)cnn2)c1", "note": "[Compound 80, 4-[6-(2-aminoethyl)pyridin-3-yl]-3-(5-morpholin-4-ylpyridazin-3-yl)oxybenzonitrile]", "IC50": "> 1000"},
      {"molecule": "N#Cc1ccc(-c2ccc(CCN)nc2)c(Oc2cc(N3CCCCC3)cnn2)c1", "note": "[Compound 81, 4-[6-(2-aminoethyl)pyridin-3-yl]-3-(5-piperidin-1-ylpyridazin-3-yl)oxybenzonitrile]", "IC50": "> 1000"},
      {"molecule": "N#Cc1ccc(-c2ccc(C(O)CN)cc2)c(Oc2cnnc(-c3ccccc3)c2)c1", "note": "(centres unmarked) [Compound 82, 4-[4-(2-amino-1-hydroxyethyl)phenyl]-3-(6-phenylpyridazin-4-yl)oxybenzonitrile]", "IC50": "< 10"},
      {"molecule": "N#Cc1ccc(-c2ccc(C3(CN)CC3)cc2)c(Oc2cnnc(-c3ccccc3)c2)c1", "note": "[Compound 83, 4-[4-[1-(aminomethyl)cyclopropyl]phenyl]-3-(6-phenylpyridazin-4-yl)oxybenzonitrile]", "IC50": "> 1000"}
    ]}
  ]
}
